Entries after “also recorded” stand apart in the source; their conditions may differ.
Key:
[1] = tested on: bacteria detected in patient urine specimens; experiment: Pooled Antibiotic Susceptibility Testing (P-AST) of urine specimens, polymicrobial v. monomicrobial (logistic regression); assay type: cell-based; settings: polymicrobial urine specimens
Source text: The present invention describes Pooled Antibiotic Susceptibility Testing (P-AST), which involves simultaneously growing all detected bacteria together in the presence of antibiotics and then measuring susceptibility. […] Urine specimens were obtained from patients presenting with UTI-like symptoms to 37 urology clinics. The odds of resistance were estimated for 18 antibiotics relative to increasing numbers of bacterial species in a specimen.
The following study combines data from two studies of antibiotic resistance patterns in elderly patients presenting with symptoms consistent with a UTI. […] All subjects met the following inclusion and exclusion criteria. Inclusion criteria included: symptoms of acute cystitis, complicated UTI, persistent UTI, recurrent UTI, prostatitis, pyelonephritis, interstitial cystitis (at any age), symptoms of other conditions at years of age, specimen volumes sufficient to permit urine culture and Multiplex Polymerase Chain Reaction (M-PCR) combined with Pooled Antibiotic Sensitivity Testing (P-AST), patient informed consented, documented times at which the specimens were collected and stabilized with boric acid in grey-top tubes. Exclusion criteria included prior participation in this study, antibiotics taken for any reason other than UTI at the time of enrollment, chronic (≥10 days) indwelling catheters, self-catheterization, and urinary diversion.
(§6) The Pooled Antibiotic Sensitivity Test (P-AST) is permitting the organisms identified to grow in the presence of antibiotics and measuring the minimum concentration of antibiotic to inhibit growth. Antibiotic susceptibility testing is performed when at least a single organism within a pool of organisms reaches a certain threshold, (e.g., at least 3,000 cells/ml, at least 5,000 cells/ml, at least 10,000 cells/ml, etc.) and can grow in the presence of the antibiotic in the assay within the time of testing. […] These pools of organism(s) are inoculated into growth medium then placed onto an antibiotic laden “spec plate” that is then incubated and analyzed for growth. The breakpoints are derived from the CLSI breakpoints.

[2] = tested on: Coagulase-negative Staphylococcus (CoNS) and K. pneumoniae; experiment: P-AST species-pair interaction on antibiotic resistance (logistic regression, HSAP/UP); assay type: cell-based, Coagulase negative staphylococci; Klebsiella pneumoniae; settings: CoNS and K. pneumoniae together v. expected from each species alone (HSAP/UP)
Method: (§1) The Pooled Antibiotic Sensitivity Test (P-AST) is permitting the organisms identified to grow in the presence of antibiotics and measuring the minimum concentration of antibiotic to inhibit growth. Antibiotic susceptibility testing is performed when at least a single organism within a pool of organisms reaches a certain threshold, (e.g., at least 3,000 cells/ml, at least 5,000 cells/ml, at least 10,000 cells/ml, etc.) and can grow in the presence of the antibiotic in the assay within the time of testing. (Note: 10,000 cells/ml is equivalent to 10,000 CFU/ml.) The present invention is not limited to a 10,000 cells/mL threshold. These pools of organism(s) are inoculated into growth medium then placed onto an antibiotic laden “spec plate” that is then incubated and analyzed for growth. The breakpoints are derived from the CLSI breakpoints.
(§2) P-AST was performed by aliquoting 1 mL of patient urine specimen into a 1.7 mL microcentrifuge tube. After centrifugation, the supernatant was aspirated and discarded, leaving approximately 100 or 50 μL (minimum volume left above pellet created from centrifugation) of patient sample in the microcentrifuge tube. One mL of Mueller Hinton Growth Media was then aliquoted into the patient sample in the microcentrifuge tube and the tubes were incubated at 35° C. in a non-CO2 incubator for 6 hours. Non-inoculated liquid MH-media is incubated as the negative control to confirm the media used is not contaminated. Those samples that reached a minimum threshold of 10,000 cells/mL were then diluted by aliquoting 0.5 mL of sample into a 50 mL conical tube containing Mueller Hinton Growth Media (in this example, the dilution was 1:60, e.g., 500 μL was added to 29.5 mL). 96-well plates pre-loaded with antibiotics were then inoculated with diluted samples and incubated along with control plates for 12-16 hours at 35° C. in a single layer. Optical density of samples was then read on a DensiCHEK plate reader. The DensiCHEK instrument is used to measure the concentration of turbid samples considered positive because PCR-ID result was >=10,000 cells/mL. The turbid samples were diluted/normalized to the same concentration and then added to a volume of liquid, e.g., 29.5 mL of liquid MH-media. A spectrophotometer (plate reader) is used to measure optical density of the samples in wells of antibiotics and inoculum in order to determine if there is growth in a well. The present invention is not limited to a concentration of 10,000 cells/mL.
Interactions between pairs of bacterial species were investigated using a logistic regression model to predict resistance in the presence of specific bacterial species. […]

[3] = tested on: E. coli and S. agalactiae; experiment: as above; assay type: cell-based, Escherichia coli; Streptococcus agalactiae; settings: E. coli and S. agalactiae together v. expected from each species alone (HSAP/UP)
Method: as §1, §2
(§3) Interactions between pairs of bacterial species were investigated using a logistic regression model to predict resistance in the presence of specific bacterial species. Bacterial species that tested positive in at least 30 samples were considered in the regression model: these 16 species were A. schaalii, A. urinae, A. omnicolens, CoNS, C. riegelii, E. faecalis, E. coli, K. oxytoca, K. pneumoniae, M. morganii, P. mirabilis, P. aeruginosa, S. aureus, S. agalactiae, U. urealyticum, VGS. Backward stepwise model selection was performed on the model with all main effects and all pairwise interactions using an enter significance level of α=0.10 and an exit significance level of α=0.05 to obtain the best fitting model. This model was used to predict resistance rates when a specific organism was present or when a specific pair of organisms were present.
(§4) Using the logistic regression model described above, the resistance rate for a pair of species was compared to the resistance rates for each species alone. […]

[4] = tested on: E. faecalis and S. agalactiae; experiment: as above; assay type: cell-based, Enterococcus faecalis; Streptococcus agalactiae; settings: E. faecalis and S. agalactiae together v. expected from each species alone (HSAP/UP)
Method: as §1
(§5) P-AST was performed by aliquoting 1 mL of patient urine specimen into a 1.7 mL microcentrifuge tube. After centrifugation, the supernatant was aspirated and discarded, leaving approximately 100 or 50 μL (minimum volume left above pellet created from centrifugation) of patient sample in the microcentrifuge tube. […] Optical density of samples was then read on a DensiCHEK plate reader. […] A spectrophotometer (plate reader) is used to measure optical density of the samples in wells of antibiotics and inoculum in order to determine if there is growth in a well. […]

[5] = tested on: E. coli and P. mirabilis; experiment: as above; assay type: cell-based, Escherichia coli; Proteus mirabilis; settings: E. coli and P. mirabilis together v. expected from each species alone (HSAP/UP)
Method: as §1, §2, §3, §4

[6] = tested on: Coagulase-negative Staphylococcus (CoNS) and E. coli; experiment: as above; assay type: cell-based, Coagulase negative staphylococci; Escherichia coli; settings: CoNS and E. coli together v. expected from each species alone (HSAP/UP)
Method: as §1, §5

[7] = tested on: E. coli and K. oxytoca; experiment: as above; assay type: cell-based, Escherichia coli; Klebsiella oxytoca; settings: E. coli and K. oxytoca together v. expected from each species alone (HSAP/UP)
Method: as §1, §5

[8] = tested on: E. faecalis and E. coli; experiment: as above; assay type: cell-based, Enterococcus faecalis; Escherichia coli; settings: E. faecalis and E. coli together v. expected from each species alone (HSAP/UP)
Method: as §1, §5

[9] = tested on: E. faecalis and K. pneumoniae; experiment: as above; assay type: cell-based, Enterococcus faecalis; Klebsiella pneumoniae; settings: E. faecalis and K. pneumoniae together v. expected from each species alone (HSAP/UP)
Method: as §1, §5

[10] = tested on: E. faecalis and P. aeruginosa; experiment: as above; assay type: cell-based, Enterococcus faecalis; Pseudomonas aeruginosa; settings: E. faecalis and P. aeruginosa together v. expected from each species alone (HSAP/UP)
Method: as §1, §5

[11] = tested on: E. faecalis and P. mirabilis; experiment: as above; assay type: cell-based, Enterococcus faecalis; Proteus mirabilis; settings: E. faecalis and P. mirabilis together v. expected from each species alone (HSAP/UP)
Method: as §1, §5

[12] = tested on: Coagulase-negative Staphylococcus (CoNS) and E. faecalis; experiment: as above; assay type: cell-based, Coagulase negative staphylococci; Enterococcus faecalis; settings: CoNS and E. faecalis together v. expected from each species alone (HSAP/UP)
Method: as §1, §5

[13] = tested on: Coagulase-negative Staphylococcus (CoNS) and S. agalactiae; settings: CoNS and S. agalactiae together v. expected from each species alone (HSAP/UP)
Method: as §6
P-AST was performed by aliquoting 1 mL of patient urine specimen into a 1.7 mL microcentrifuge tube. After centrifugation, the supernatant was aspirated and discarded, leaving approximately 100 or 50 μL (minimum volume left above pellet created from centrifugation) of patient sample in the microcentrifuge tube. One mL of Mueller Hinton Growth Media was then aliquoted into the patient sample in the microcentrifuge tube and the tubes were incubated at 35° C. in a non-CO2 incubator for 6 hours. […] Those samples that reached a minimum threshold of 10,000 cells/mL were then diluted by aliquoting 0.5 mL of sample into a 50 mL conical tube containing Mueller Hinton Growth Media (in this example, the dilution was 1:60, e.g., 500 μL was added to 29.5 mL). 96-well plates pre-loaded with antibiotics were then inoculated with diluted samples and incubated along with control plates for 12-16 hours at 35° C. in a single layer. Optical density of samples was then read on a DensiCHEK plate reader. The DensiCHEK instrument is used to measure the concentration of turbid samples considered positive because PCR-ID result was >=10,000 cells/mL. The turbid samples were diluted/normalized to the same concentration and then added to a volume of liquid, e.g., 29.5 mL of liquid MH-media. A spectrophotometer (plate reader) is used to measure optical density of the samples in wells of antibiotics and inoculum in order to determine if there is growth in a well.
Interactions between pairs of bacterial species were investigated using a logistic regression model to predict resistance in the presence of specific bacterial species. Bacterial species that tested positive in at least 30 samples were considered in the regression model: these 16 species were A. schaalii, A. urinae, A. omnicolens, CoNS, C. riegelii, E. faecalis, E. coli, K. oxytoca, K. pneumoniae, M. morganii, P. mirabilis, P. aeruginosa, S. aureus, S. agalactiae, U. urealyticum, VGS. […]

Structure (SMILES)	odds of resistance for each additional species identified (in words) [1]	change in antibiotic resistance of the pair of organisms [2]	change in antibiotic resistance of the pair of organisms [3]	change in antibiotic resistance of the pair of organisms [4]	change in antibiotic resistance of the pair of organisms [5]	other results
CC1(C)S[C@@H]2[C@H](NC(=O)[C@H](N)c3ccccc3)C(=O)N2[C@H]1C(=O)O [Ampicillin, ampicillin]	increased	reduced resistance	decrease in resistance; also recorded: decreased odds of resistance	decrease in resistance; also recorded: decreased odds of resistance		
CO[C@@]1(NC(=O)Cc2cccs2)C(=O)N2C(C(=O)O)=C(COC(N)=O)CS[C@@H]21 [Cefoxitin, cefoxitin]					decrease in resistance; also recorded: decreased odds of resistance	
CO/N=C(\C(=O)N[C@@H]1C(=O)N2C(C(=O)O)=C(CSc3nc(=O)c(=O)[nH]n3C)CS[C@H]12)c1csc(N)n1 [Ceftriaxone, ceftriaxone]		decrease in resistance; also recorded: decreased odds of resistance	decrease in resistance; also recorded: decreased odds of resistance		decrease in resistance; also recorded: decreased odds of resistance	change in antibiotic resistance of the pair of organisms [6]: decrease in resistance; also recorded: decreased probability in resistance; also recorded: decreased odds of resistance
O=C(O)c1cn(C2CC2)c2cc(N3CCNCC3)c(F)cc2c1=O [Ciprofloxacin, ciprofloxacin]		decrease in resistance; also recorded: decreased odds of resistance	decrease in resistance; also recorded: decreased odds of resistance			change in antibiotic resistance of the pair of organisms [7]: decrease in resistance; also recorded: decreased odds of resistance
C[C@@H](O)[C@H]1C(=O)N2C(C(=O)O)=C(S[C@@H]3CN[C@H](C(=O)N(C)C)C3)[C@H](C)[C@H]12 [Meropenem, meropenem]						change in antibiotic resistance of the pair of organisms [8]: decrease in resistance; also recorded: decreased odds of resistance; change in antibiotic resistance of the pair of organisms [9]: decrease in resistance; also recorded: decreased odds of resistance; change in antibiotic resistance of the pair of organisms [10]: decrease in resistance; also recorded: decreased odds of resistance; change in antibiotic resistance of the pair of organisms [11]: decrease in resistance; also recorded: decreased odds of resistance
CN[C@H](CC(C)C)C(=O)N[C@H]1C(=O)N[C@@H](CC(N)=O)C(=O)N[C@H]2C(=O)N[C@H]3C(=O)N[C@H](C(=O)N[C@H](C(=O)O)c4cc(O)cc(O)c4-c4cc3ccc4O)[C@H](O)c3ccc(c(Cl)c3)Oc3cc2cc(c3O[C@@H]2O[C@H](CO)[C@@H](O)[C@H](O)[C@H]2O[C@H]2C[C@](C)(N)[C@H](O)[C@H](C)O2)Oc2ccc(cc2Cl)[C@H]1O [Vancomycin, vancomycin]	increased			decrease in resistance; also recorded: decreased odds of resistance		change in antibiotic resistance of the pair of organisms [12]: decrease in resistance; also recorded: decreased odds of resistance; change in antibiotic resistance of the pair of organisms [13]: decrease in resistance; also recorded: decreased odds of resistance
